Data: ChEMBL document CHEMBL1201862, “PubChem BioAssay data set” (2004)
Values joined by “and” are separate entries in the source; they are usually repeats but may differ in a detail not shown here. Identical values can stand only once.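 Test compounds were applied to cells in 96-well plates for 48 hours at 5 doses. GI50 = concentration required for 50% inhibition of growth.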 Active and inactive are the calls of the source. Cut-off read from the data, not from the text of the source: active = GI50 up to about 1.1 µM and inactive = higher.

Key:
Test in all cases: NCI tumour cell line growth inhibition, 48 h
HL-60 = tested on: HL-60
HCT-15 = tested on: HCT-15
HOP-62 = tested on: HOP-62
HCT-116 = tested on: HCT-116
KM12 = tested on: KM12
NCI-H23 = tested on: NCI-H23
K562 = tested on: K562
NCI-H522 = tested on: NCI-H522
SN12C = tested on: SN12C
LOX IMVI = tested on: LOX IMVI
ACHN = tested on: ACHN
OVCAR-3 = tested on: OVCAR-3
MOLT-4 = tested on: MOLT-4
A549 = tested on: A549
SF-295 = tested on: SF-295
SF-539 = tested on: SF-539
SK-MEL-2 = tested on: SK-MEL-2
RXF 393 = tested on: RXF 393

SMILES: CCN(CC)CCC(=O)N1CCc2c([nH]c3ccccc23)C1c1cccnc1 (centres undefined)
- GI50 (HL-60): > 100 µM (inactive)
- GI50 (HCT-15): > 100 µM
- GI50 (HOP-62): > 100 µM (inactive)
- GI50 (HCT-116): > 100 µM (inactive)
- GI50 (KM12): > 100 µM (inactive)
- GI50 (NCI-H23): > 100 µM (inactive)
- GI50 (K562): > 100 µM (inactive)
- GI50 (NCI-H522): > 100 µM (inactive)
- GI50 (SN12C): > 100 µM (inactive)
- GI50 (LOX IMVI): > 100 µM (inactive)
- GI50 (ACHN): > 100 µM (inactive)
- GI50 (OVCAR-3): > 100 µM (inactive)
- GI50 (MOLT-4): > 100 µM (inactive)
- GI50 (A549): > 100 µM (inactive)
- GI50 (SF-295): > 100 µM (inactive)
- GI50 (SF-539): > 100 µM (inactive)

SMILES: CCCN(CCC)c1c([N+](=O)[O-])cc(C(=O)N(CCO)CCO)cc1[N+](=O)[O-]
- GI50 (HL-60): > 100 µM (inactive)
- GI50 (HCT-15): > 100 µM
- GI50 (HCT-116): > 100 µM (inactive)
- GI50 (KM12): > 100 µM (inactive)
- GI50 (NCI-H23): > 100 µM (inactive)
- GI50 (K562): 61.4 µM (inactive)
- GI50 (NCI-H522): > 100 µM (inactive)
- GI50 (SN12C): > 100 µM (inactive)
- GI50 (ACHN): > 100 µM (inactive)
- GI50 (OVCAR-3): > 100 µM (inactive)
- GI50 (MOLT-4): > 100 µM (inactive)
- GI50 (SK-MEL-2): > 100 µM (inactive)
- GI50 (A549): > 100 µM (inactive)
- GI50 (SF-295): > 100 µM (inactive)
- GI50 (SF-539): > 100 µM (inactive)

SMILES: COc1ccc2nc(NC(=O)C(=O)CC(=O)c3ccc([N+](=O)[O-])cc3)sc2c1
- GI50 (HOP-62): > 100 µM (inactive)
- GI50 (HCT-116): > 100 µM (inactive)
- GI50 (KM12): > 100 µM (inactive)
- GI50 (NCI-H23): > 100 µM (inactive)
- GI50 (K562): > 100 µM (inactive)
- GI50 (NCI-H522): > 100 µM (inactive)
- GI50 (SN12C): > 100 µM (inactive)
- GI50 (ACHN): > 100 µM (inactive)
- GI50 (OVCAR-3): > 100 µM (inactive)
- GI50 (MOLT-4): > 100 µM (inactive)
- GI50 (SK-MEL-2): > 100 µM (inactive)
- GI50 (A549): > 100 µM (inactive)
- GI50 (SF-539): > 100 µM (inactive)

SMILES: CCOC(=O)c1ccc(/N=C/c2ccc(N(CCC#N)S(=O)(=O)c3ccccc3)cc2C)cc1
- GI50 (HL-60): 19.4 µM (inactive)
- GI50 (HCT-15): 6.82 µM
- GI50 (HOP-62): 31 µM (inactive)
- GI50 (HCT-116): 36.9 µM (inactive)
- GI50 (KM12): 18.7 µM (inactive)
- GI50 (NCI-H23): > 100 µM (inactive)
- GI50 (K562): 9.79 µM (inactive)
- GI50 (NCI-H522): 72.1 µM (inactive)
- GI50 (SN12C): 75.7 µM (inactive)
- GI50 (LOX IMVI): 22.8 µM (inactive)
- GI50 (OVCAR-3): 54.7 µM (inactive)
- GI50 (MOLT-4): 28.6 µM (inactive)
- GI50 (SK-MEL-2): 33.5 µM (inactive)
- GI50 (A549): 47.1 µM (inactive)
- GI50 (SF-295): 26.5 µM (inactive)
- GI50 (SF-539): 41.9 µM (inactive)

SMILES: Cc1cc(C)c(C(=O)C(C)C(c2ccccc2)c2ccc(Cl)cc2)c(C)c1 (centres undefined)
- GI50 (HCT-15): > 100 µM and 51.5 µM
- GI50 (HOP-62): > 100 µM (inactive)
- GI50 (HCT-116): > 100 µM (inactive) and 56.1 µM (inactive)
- GI50 (RXF 393): > 100 µM (inactive) and 77.6 µM (inactive)
- GI50 (KM12): > 100 µM (inactive) and 96.4 µM (inactive)
- GI50 (NCI-H23): > 100 µM (inactive) and 60.7 µM (inactive)
- GI50 (K562): 50.5 µM (inactive) and 48.8 µM (inactive)
- GI50 (SN12C): > 100 µM (inactive)
- GI50 (ACHN): > 100 µM (inactive) and 91.8 µM (inactive)
- GI50 (OVCAR-3): > 100 µM (inactive)
- GI50 (MOLT-4): 65.9 µM (inactive) and 50.7 µM (inactive)
- GI50 (A549): > 100 µM (inactive)
- GI50 (SF-295): > 100 µM (inactive)
- GI50 (SF-539): > 100 µM (inactive)

SMILES: C=C1C(=O)OC2C1C(OC(=O)/C(=C/C)COC(C)=O)CC1(CO1)C1C(OC(=O)/C(=C/C)CO)C=C(C)C21 (centres undefined)
- GI50 (HL-60): 0.446 µM (active)
- GI50 (HCT-15): 1.59 µM
- GI50 (HCT-116): 1.63 µM (inactive)
- GI50 (RXF 393): 394 nM (active)
- GI50 (KM12): 3.94 µM (inactive)
- GI50 (NCI-H23): 1.63 µM (inactive)
- GI50 (K562): 1.6 µM (inactive)
- GI50 (SN12C): 1.82 µM (inactive)
- GI50 (LOX IMVI): 3.19 µM (inactive)
- GI50 (ACHN): 1.9 µM (inactive)
- GI50 (OVCAR-3): 1.14 µM (inactive)
- GI50 (MOLT-4): 0.378 µM (active)
- GI50 (SK-MEL-2): 1.87 µM (inactive)
- GI50 (A549): 6.9 µM (inactive)
- GI50 (SF-295): 5.16 µM (inactive)
- GI50 (SF-539): 5.81 µM (inactive)

SMILES: Cc1c2cc[n+](C)cc2c(C)c2c1[nH]c1ccc(O)c(OCC(F)(F)F)c12
- GI50 (HL-60): 2.5 µM (inactive)
- GI50 (HOP-62): 1.12 µM (inactive)
- GI50 (HCT-116): 4.97 µM (inactive)
- GI50 (NCI-H23): 0.984 µM (active)
- GI50 (K562): 2.39 µM (inactive)
- GI50 (NCI-H522): 1.01 µM (active)
- GI50 (SN12C): 0.34 µM (active)
- GI50 (LOX IMVI): 13 µM (inactive)
- GI50 (OVCAR-3): 0.895 µM (active)
- GI50 (MOLT-4): 2.42 µM (inactive)
- GI50 (SK-MEL-2): 4.63 µM (inactive)
- GI50 (A549): 1.87 µM (inactive)
- GI50 (SF-295): 0.839 µM (active)
- GI50 (SF-539): 2.04 µM (inactive)
